{
  "source": "patent US12521395B2",
  "about": "“Gem-disubstituted heterocyclic compounds and their use as IDH inhibitors” (NERVIANO MEDICAL SCIENCES S.R.L., priority 2019, dated 2026)",
  "key": {"IDH2^R172K": {"target": "T1, IDH2^R172K (Homo sapiens, UniProt P48735, R172K)", "T1 sequence (P48735 40-452 R172K)": "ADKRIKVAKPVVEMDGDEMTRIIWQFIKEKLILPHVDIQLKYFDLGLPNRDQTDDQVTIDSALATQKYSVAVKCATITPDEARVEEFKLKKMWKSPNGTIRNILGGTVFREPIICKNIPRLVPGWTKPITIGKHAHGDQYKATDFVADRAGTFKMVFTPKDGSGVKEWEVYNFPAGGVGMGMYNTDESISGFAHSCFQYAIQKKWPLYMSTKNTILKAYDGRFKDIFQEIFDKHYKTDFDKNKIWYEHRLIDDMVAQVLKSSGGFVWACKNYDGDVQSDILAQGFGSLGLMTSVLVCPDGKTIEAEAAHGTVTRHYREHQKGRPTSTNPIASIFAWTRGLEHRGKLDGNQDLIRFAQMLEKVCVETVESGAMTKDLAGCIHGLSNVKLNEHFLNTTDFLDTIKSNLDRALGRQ", "experiment": "NADPH depletion assay (diaphorase/resazurin), IDH2 R172K", "assay_type": "biochemical", "settings": "IDH2^R172K 16 nM, alpha-ketoglutarate 0.55 mM", "description": "(§1) IDH mutated enzyme activity converting alpha-ketoglutarate to 2-hydroxyglutaric acid is measured using a NADPH depletion assay. In the assay the remaining cofactor is measured at the end of the reaction with the addition of a catalytic excess of diaphorase and resazurin, to generate a fluorescent signal in proportion to the amount of NADPH remaining. IDH1 WT enzyme as well as mutated isoforms IDH1^R132H, IDH1^R132C, and IDH2^R172K enzymes are commercially available proteins (see e.g. Sino Biological, Abcam, Active Motif or Creative BioMart).\n(§2) IDH1^R132H homodimer enzyme are diluted to 8 nM, in 10 μL of Assay Buffer (150 mM NaCl, 50 mM Tris-HCl pH 7.6, 10 mM MgCl2, 0.001% Triton X-100, 4 mM β-mercaptoethanol); 0.2 μL of test compound, previously serially diluted 1 to 3, >10 experimental points from 1 mM in DMSO, is added and the mixture is incubated for 15 minutes at room temperature. The reaction is started with the addition of 10 μL of Substrate Mix (12 μM NADPH, 3.4 mM alpha-ketoglutarate in Assay Buffer) and the mixture is incubated for 60 minutes at room temperature. The reaction is terminated with the addition of 5 μl of Detection Buffer (100 μg/mL diaphorase, 30 μM resazurin, in IX Assay Buffer), and is incubated for 15 minutes before reading on a ViewLux as platereader at Ex544/Em590.\nCompounds are assayed for their activity against IDH2^R172K following the same assay as above with the following modifications: IDH2^R172K and alpha-ketoglutarate final concentrations in the Assay Buffer is 16 nM and 0.55 mM, respectively."}, "[1]": {"tested_on": "cell lines HT-1080 (IDH1^R132C)", "experiment": "Cellular assay: inhibition of 2HG production, LC-MS/MS", "assay_type": "cell-based", "settings": "Homo sapiens, 72 hr incubation, 2-HG in cell culture media, read-out: HT1080 2-HG IC50", "description": "Cell lines HT-1080 (commercially available) are maintained in E-MEM 10% FCS and incubated at 37° C. in a humidified 5% CO2 atmosphere.\nCells are seeded into 96 well black flat bottom plates at a density of 500 cells/well in 100 μL complete medium. After 24 hr the medium is replaced with 200 μL of fresh medium and compounds (dissolved into DMSO) are administrated to the cells using D300E Digital Dispenser (Tecan).\nAfter 72 hr of incubation 100 μL from each well are collected and used for 2HG (R(−)-2-hydroxyglutarate) quantification. Levels of 2-HG in cell culture media are determined by LC-MS/MS. Cell supernatants (100 μL/well) are treated with 1 M aqueous trichloroacetic acid containing 130 μM of the internal standard 2-HG-d3 (20 μL/well) in a 96-well plate. The plates are sealed, mildly vortexed for 60 minutes, centrifuged at 4,000 RPM for 15 minutes, placed in a refrigerated autosampler taking care not to shake them, and aliquots of the upper part of the samples are directly injected in the chromatographic system. Calibration standards are obtained by ten folds dilution of aqueous 2-HG stock solutions with blank cell culture medium and denatured exactly in the same way as described above for samples. Samples and standards are assayed for 2-HG by reversed phase chromatography on a C18 column eluted with aqueous 0.15% formic acid and briefly washed with 90% methanol at the end of the run. 2-HG is determined by negative ion electrospray ionization with the internal standard method on a triple quadrupole mass spectrometer monitoring the MRM transitions 147>129 (2-HG) and 150>132 (2-HG-d3).\n2-HG inhibition was calculated by comparing treated versus control data using Assay Explore (Symyx) software, with IC50 determined using a sigmoidal fitting algorithm."}, "IDH1^R132C": {"target": "IDH1^R132C (Homo sapiens, UniProt O75874, R132C)", "sequence (O75874 whole entry R132C)": "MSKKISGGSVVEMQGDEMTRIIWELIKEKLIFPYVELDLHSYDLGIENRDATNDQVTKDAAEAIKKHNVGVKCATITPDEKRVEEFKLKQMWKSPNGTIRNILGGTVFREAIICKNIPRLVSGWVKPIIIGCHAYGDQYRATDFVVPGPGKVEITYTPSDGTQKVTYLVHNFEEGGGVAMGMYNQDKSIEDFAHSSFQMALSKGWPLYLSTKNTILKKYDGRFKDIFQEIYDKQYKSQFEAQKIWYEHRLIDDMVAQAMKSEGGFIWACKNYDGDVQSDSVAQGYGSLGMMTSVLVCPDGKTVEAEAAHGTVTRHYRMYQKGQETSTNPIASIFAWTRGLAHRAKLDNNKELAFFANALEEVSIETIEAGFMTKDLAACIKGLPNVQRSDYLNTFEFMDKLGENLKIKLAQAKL", "experiment": "NADPH depletion assay (diaphorase/resazurin), IDH1 R132C", "assay_type": "biochemical", "settings": "IDH1^R132C 2 nM, alpha-ketoglutarate 0.14 mM; read-out: IDH1^R132C IC50"}, "IDH1^R132H": {"target": "IDH1^R132H (Homo sapiens, UniProt O75874, R132H)", "sequence (O75874 whole entry R132H)": "as the sequence (O75874 whole entry R132C) above, with C132H counted along it", "experiment": "NADPH depletion assay (diaphorase/resazurin), IDH1 R132H", "assay_type": "biochemical", "settings": "15 min preincubation, 60 min reaction, room temperature", "description": "as §1, §2"}, "IDH1 wild type enzyme": {"target": "IDH1 wild type enzyme (Homo sapiens, UniProt O75874)", "sequence (O75874 whole entry)": "as the sequence (O75874 whole entry R132C) above, with C132R counted along it", "experiment": "Enzymatic assay for IDH1 wild-type (NADPH forming assay)", "assay_type": "biochemical", "settings": "0.016 nM IDH1WT, 15 min preincubation", "description": "IDH1WT enzymatic activity converting isocitric acid to alpha-ketoglutarate is measured using a NADPH forming assay. In the assay the forming cofactor is measured in continuous with the addition of a catalytic excess of diaphorase and resazurin, to generate a fluorescent signal in proportion to the amount of NADPH forming.\nCompounds were preincubated with the enzyme, then the reaction was started by the addition of NADP+, isocitrate, diaphorase and a corresponding substrate, resazurin. Diaphorase reduces resazurin to the highly fluorescent resorufin with the concomitant oxidation of NADPH to NADP. Specifically, 0.2 μL of test compound, previously serially diluted 1 to 3, >10 experimental points from 1 mM in DMSO, was added to 0.016 nM IDH1WT enzyme in 10 μL of Assay Buffer (150 mM NaCl, 50 mM Tris-HCl pH 7.6, 10 mM MgCl2, 0.001% Triton X-100, 4 mM β-mercaptoethanol); the mixture is incubated for 15 minutes at room temperature. The reaction is started with the addition of 10 μL of Substrate Mix (400 μM NADP^+, 40 μM iso-citrate, 5 ugr/mL Diaphorase and 7 μM resazurin in Assay Buffer), the mixture is incubated at room temperature and the reaction is reading on a ViewLux as platereader at Ex544/Em590 in continuous."}},
  "note": "pIC50: −log10 of the molar value.",
  "data": [
    {"smiles": "C=CC(=O)N1CCN(C2(c3ccc(C(C)(C)Nc4ncc5ccc(=O)n(C(C)C)c5n4)cc3)CCC(F)(F)CC2)CC1", "note": "[cpd 52, 2-[(2-{4-[1-(4-acryloylpiperazin-1-yl)-4,4-difluorocyclohexyl]phenyl}propan-2-yl)amino]-8-(propan-2-yl)pyrido[2,3-d]pyrimidin-7(8H)-one]", "values": [
      {"measurement": "pIC50", "setting": "IDH2^R172K", "result": 6.49},
      {"measurement": "pIC50", "setting": "[1]", "result": 8.40},
      {"measurement": "pIC50", "setting": "IDH1^R132C", "result": 8.05},
      {"measurement": "pIC50", "setting": "IDH1^R132H", "result": 7.85},
      {"measurement": "pIC50", "setting": "IDH1 wild type enzyme", "result": 6.49}
    ]}
  ]
}
